From US9701685B2, “Spiropyrrolidines as MDM2 inhibitors” (HUDSON BIOPHARMA INC., priority 2014, dated 2017)

Legend:
GST-tag full length MDM2 = GST-tag full length MDM2 (Homo sapiens (Human), UniProt Q00987); assay: MDM2-p53 TR-FRET Binding Assays; settings: MDM2 / biotin p53 peptide
Text: MDM2-p53 TR-FRET Binding Assays
Examples are listed in the following.

SJSA-1 = assay: Cell proliferation inhibition (CCK-8) against SJSA-1; assay type: cell-based; settings: Homo sapiens, SJSA-1, 120 h, SJSA-1 human osteosarcoma cells, 5 days
Description: Cellular data of selected compounds against SW480 and SJSA-1 was conducted according to the following protocol.
Cells in the logarithmic growth phase were seeded into 96-well plates (Corning, 3599; 180 μL/well; 3000 cells/well for both SW480 and SJSA-1 cell lines) and cultured in an incubator (Thermo, 3111) for 24 h. Cells were then treated in triplicate by adding 20 μL/well solution containing different concentrations of the tested compounds in 5% CO2 at 37° C. for 5 days. After that, cells were treated for additional 4 h by adding 10 μL/well Cell Counting Kit-8 (CCK-8; DojinDo, CK04) solution. Finally, the absorbance was read at 450 nm with a microplate reader spectra-MAX190 (Molecular Devices, Sunnyvale, Calif.). The IC50 value was determined with SofeMax Pro, a software equipped in this reader. The cell proliferation inhibition rate was calculated as: proliferation inhibition (%)=[1-(A450 treated/A450 control)]×100%.
All the tested compounds could be dissolved in DMSO at 10^−2 M (as stock solution). […] The compounds were diluted at 9 3-fold serial concentrations beginning at the initial concentration of 10 μM (i.e., the highest final concentration to treat the cells). The detailed drug dilution protocol is: Add 5 μL stock solution (10^−2 M) into 495 μL medium, transfer 125 μL of the resulting solution (100 μM) into 250 μL medium, and repeat this till the 9th resulting concentration of 15.2 nM. Pipet 20 μL of each drug dilution into cell plates.

GST-tag full length MDM2, sequence (Q00987 whole entry): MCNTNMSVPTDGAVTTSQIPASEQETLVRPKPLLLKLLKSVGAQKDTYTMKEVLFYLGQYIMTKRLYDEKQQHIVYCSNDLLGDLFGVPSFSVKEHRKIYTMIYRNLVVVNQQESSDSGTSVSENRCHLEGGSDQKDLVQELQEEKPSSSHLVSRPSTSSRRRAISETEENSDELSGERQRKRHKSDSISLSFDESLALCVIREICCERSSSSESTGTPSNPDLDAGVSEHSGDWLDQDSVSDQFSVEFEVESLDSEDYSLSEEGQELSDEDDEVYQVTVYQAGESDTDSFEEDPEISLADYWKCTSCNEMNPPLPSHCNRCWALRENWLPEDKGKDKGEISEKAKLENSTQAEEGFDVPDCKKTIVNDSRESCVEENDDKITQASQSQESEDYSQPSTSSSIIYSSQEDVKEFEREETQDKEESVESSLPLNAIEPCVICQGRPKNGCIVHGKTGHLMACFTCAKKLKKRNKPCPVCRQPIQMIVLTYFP

IC50 (GST-tag full length MDM2): ≤ 7.2 nM
IC50 (SJSA-1): ≤ 20 nM
SMILES: COc1cc(C(N)=O)ccc1NC(=O)[C@@H]1N[C@@H](CC2(CF)CC2)[C@@]2(C(=O)Nc3cc(Cl)ccc32)[C@H]1c1cccc(Cl)c1F [Example 77, (2′R,3R,3′S,5′S)-N-(4-carbamoyl-2-methoxy-phenyl)-6-chloro-3′-(3-chloro-2-fluoro-phenyl)-5′-[[1-(fluoromethyl)cyclopropyl]methyl]-2-oxo-spiro[indoline-3,4′-pyrrolidine]-2′-carboxamide]
